Where “and” joins values, the source holds several entries; their conditions need not be identical. Equal entries are not always repeated.
Test system: isolated Langendorff-perfused rat hearts
Test: Langendorff-perfused rat hearts, haemodynamic parameters
Design: key to LVSP, individual hearts / LVEDP, individual hearts: pressure in mmHg; Max (Figure 5c): unit not given here
Settings: for Max (Figure 5c): one column per heart; for LVSP representative trace, ON: during perfusion with compound
Experimental: Next, we tested for the functional effects of F10 in isolated Langendorff-perfused rat hearts. Hearts were initially stabilized in modified Krebs-Henseleit (KH) solution for about 25–30 min and subsequently perfused with KH solution containing 20 μmol L^−1 F10 for 5 mins to reach a new steady state.
Rat hearts were Langendorff-perfused as described previously. Briefly, Wistar rats (Rattus norvegicus, male, 200–250 g, 7 weeks old) were anesthetized by injection of 0.9 mL sodium pentobarbitone 20% (w/v). […] The aorta was cannulated and secured with sutures (Mersilk 3‐0; Ethicon, Somerville, NJ, USA). Hearts were perfused at a constant perfusion pressure of 70 ± 2 mmHg using a peristaltic pump (Gilson Minipuls 4, Middleton, WI, USA) and a feedback control system (STH Pump Controller; AD Instruments, Oxford, UK). […] A fluid‐filled balloon, attached to a pressure transducer, was inserted into the left ventricle and inflated to give an end‐diastolic pressure between 3 and 8 mmHg. Left ventricular pressure (LVP), perfusion pressure, coronary flow and arterial and venous oxygen tensions were recorded using a PowerLab recorder and LabChart 8.0 software (ADInstruments). Functional parameters were averaged for ∼80 cardiac cycles at 5 min intervals.

[1] = 20 μmol L^−1 F10 or 1 μmol L^−1 Mavacamten
[2] = Time 11 min, during perfusion with 20 μmol L^−1 F10 or 1 μmol L^-1 Mavacamten
[3] = Time 12 min, during perfusion with 20 μmol L^−1 F10 or 1 μmol L^-1 Mavacamten
[4] = Time 13 min, during perfusion with 20 μmol L^−1 F10 or 1 μmol L^-1 Mavacamten
[5] = Time 14 min, during perfusion with 20 μmol L^−1 F10 or 1 μmol L^-1 Mavacamten
[6] = Time 15 min, during perfusion with 20 μmol L^−1 F10 or 1 μmol L^-1 Mavacamten

Compound: CC(C)n1c(=O)cc(N[C@@H](C)c2ccccc2)[nH]c1=O [Mavacamten]
- effect on coronary perfusion / coronary flow [1]: without affecting
- effect on heart rate [1]: without affecting
- effect on left ventricular end-diastolic pressure (LVEDP) [1]: did not affect
- Max (Figure 5c) (Time 0 min): 3876.58 and 5238.56 and 5331.08 and 5274.63
- Max (Figure 5c) (Time 1 min): 3763.48 and 5575.44 and 5372.46 and 4664.37
- Max (Figure 5c) (Time 2 min): 3604.67 and 5570.63 and 5457.56 and 4849.22
- Max (Figure 5c) (Time 3 min): 3616.7 and 5958.05 and 5555.1 and 4920.12
- Max (Figure 5c) (Time 4 min): 3720.17 and 5852.17 and 5485.6 and 4634
- Max (Figure 5c) (Time 5 min): 3611.89 and 6003.77 and 5528.57 and 4575.4
- Max (Figure 5c) (Time 6 min): 3669.64 and 6398.4 and 5572.15 and 4575.4
- Max (Figure 5c) (Time 7 min): 3638.35 and 5690.95 and 5454.91 and 4575.4
- Max (Figure 5c) (Time 8 min): 3568.57 and 5926.76 and 5613.04 and 4575.4
- Max (Figure 5c) (Time 9 min): 3638.35 and 6073.55 and 6702.43 and 4575.4
- Max (Figure 5c) (Time 10 min): 3558.95 and 6376.75 and 5920.41 and 4694.75
- LVEDP, individual hearts [2]: 1 mmHg (2×) and 2 mmHg (2×) and 3 mmHg
- LVSP, individual hearts [2]: 91 and 157 and 150 and 205 and 152
- Max (Figure 5c) (Time 11 min): 3462.69 and 5852.17 and 5171.55 and 4904.93
- LVEDP, individual hearts [3]: 0 and 1 (2×) and 2 and 3
- LVSP, individual hearts [3]: 71 and 113 and 134 and 163 and 147
- Max (Figure 5c) (Time 12 min): 2779.3 and 4057.05 and 4519.31 and 4773.25
- LVEDP, individual hearts [4]: 0 and 1 (2×) and 3 and 5
- LVSP, individual hearts [4]: 60 and 95 and 115 and 137 and 135
- Max (Figure 5c) (Time 13 min): 2415.94 and 3070.46 and 3716.1 and 3709.72
- LVEDP, individual hearts [5]: 0 and 1 (2×) and 2 and 5
- LVSP, individual hearts [5]: 51 and 81 and 104 and 115 and 105
- Max (Figure 5c) (Time 14 min): 2076.65 and 2695.08 and 3441.74 and 3481.82
- LVEDP, individual hearts [6]: 0 and 1 (2×) and 2 and 7
- LVSP, individual hearts [6]: 45 and 71 and 97 and 99 and 100
- Max (Figure 5c) (Time 15 min): 1876.93 and 2447.23 and 3260.21 and 3233.66
- LVEDP, individual hearts (Time 16 min, after washout): 0 and 1 (2×) and 3 and 5
- LVSP, individual hearts (Time 16 min, after washout): 44 and 65 and 100 and 90 and 98
- LVEDP, individual hearts (Time 17 min, after washout): 0 and 1 (2×) and 3 and 2
- LVSP, individual hearts (Time 17 min, after washout): 49 and 71 and 103 and 101 and 98
- LVEDP, individual hearts (Time 18 min, after washout): 1 mmHg (4×) and 3 mmHg
- LVSP, individual hearts (Time 18 min, after washout): 52 and 78 and 106 and 103 and 96
- LVEDP, individual hearts (Time 19 min, after washout): 1 mmHg (4×) and 2 mmHg
- LVSP, individual hearts (Time 19 min, after washout): 55 and 83 and 109 (2×) and 98
- LVEDP, individual hearts (Time 20 min, after washout): 1 mmHg (3×) and 2 mmHg (2×)
- LVSP, individual hearts (Time 20 min, after washout): 58 and 87 and 114 (2×) and 98
- Max (Figure 5c) (Time 20 min): 2218.63 and 2954.96 and 3682.2 and 4327.58
- LVEDP, individual hearts (Time 21 min, after washout): 1 mmHg (3×) and 2 mmHg (2×)
- LVSP, individual hearts (Time 21 min, after washout): 60 and 101 (2×) and 118 (2×)
- Max (Figure 5c) (Time 21 min): 2317.29 and 3027.15 and 3768.27 and 4469.39
- LVEDP, individual hearts (Time 22 min, after washout): 1 mmHg (4×) and 0 mmHg
- LVSP, individual hearts (Time 22 min, after washout): 63 and 96 and 122 and 121 and 125
- Max (Figure 5c) (Time 22 min): 2358.19 and 3503.6 and 3945.22 and 4568.14
- LVEDP, individual hearts (Time 23 min, after washout): 1 mmHg (2×) and 0 mmHg and 2 mmHg and 3 mmHg
- LVSP, individual hearts (Time 23 min, after washout): 66 and 99 and 125 and 126 and 103
- Max (Figure 5c) (Time 23 min): 2526.64 and 3729.79 and 4137.98 and 4461.79
- LVEDP, individual hearts (Time 24 min, after washout): 1 mmHg (4×) and 0 mmHg
- LVSP, individual hearts (Time 24 min, after washout): 67 and 106 and 126 and 130 and 104
- Max (Figure 5c) (Time 24 min): 2654.17 and 3905.46 and 4295.47 and 4963.17
- LVEDP, individual hearts (Time 25 min, after washout): 1 and 0 (2×) and 3 and 2
- LVSP, individual hearts (Time 25 min, after washout): 67 and 105 and 127 and 133 and 110
- Max (Figure 5c) (Time 25 min): 2752.83 and 3729.79 and 4394.02 and 5097.38
- LVSP representative trace, OFF (after washout, t 0 s): 97.9459 mmHg
- LVSP representative trace, OFF (after washout, t 10 s): 98.66 mmHg
- LVSP representative trace, OFF (after washout, t 20 s): 99.4941 mmHg
- LVSP representative trace, OFF (after washout, t 30 s): 99.8652 mmHg
- LVSP representative trace, OFF (after washout, t 40 s): 99.9074 mmHg
- LVSP representative trace, OFF (after washout, t 50 s): 100.799 mmHg
- LVSP representative trace, OFF (after washout, t 60 s): 101.94 mmHg
- LVSP representative trace, OFF (after washout, t 70 s): 102.076 mmHg
- LVSP representative trace, OFF (after washout, t 80 s): 102.473 mmHg
- LVSP representative trace, OFF (after washout, t 90 s): 103.301 mmHg
- LVSP representative trace, OFF (after washout, t 100 s): 104.178 mmHg
- LVSP representative trace, OFF (after washout, t 110 s): 104.015 mmHg
- LVSP representative trace, OFF (after washout, t 120 s): 104.172 mmHg
- LVSP representative trace, OFF (after washout, t 130 s): 104.333 mmHg
- LVSP representative trace, OFF (after washout, t 140 s): 104.863 mmHg
- LVSP representative trace, OFF (after washout, t 150 s): 105.62 mmHg
- LVSP representative trace, OFF (after washout, t 160 s): 106.146 mmHg
- LVSP representative trace, OFF (after washout, t 170 s): 107.035 mmHg
- LVSP representative trace, OFF (after washout, t 180 s): 107.188 mmHg
- LVSP representative trace, OFF (after washout, t 190 s): 108.073 mmHg
- LVSP representative trace, OFF (after washout, t 200 s): 108.759 mmHg
- LVSP representative trace, OFF (after washout, t 210 s): 109.171 mmHg
- LVSP representative trace, OFF (after washout, t 220 s): 109.899 mmHg
- LVSP representative trace, OFF (after washout, t 230 s): 110.383 mmHg
- LVSP representative trace, OFF (after washout, t 240 s): 111.699 mmHg
- LVSP representative trace, OFF (after washout, t 250 s): 111.591 mmHg
- LVSP representative trace, OFF (after washout, t 260 s): 112.354 mmHg
- LVSP representative trace, OFF (after washout, t 270 s): 113.909 mmHg
- LVSP representative trace, OFF (after washout, t 280 s): 115.189 mmHg
- LVSP representative trace, OFF (after washout, t 290 s): 115.643 mmHg
- LVSP representative trace, OFF (after washout, t 300 s): 115.694 mmHg
- LVSP representative trace, OFF (after washout, t 310 s): 117.014 mmHg
- LVSP representative trace, OFF (after washout, t 320 s): 117.329 mmHg
- LVSP representative trace, OFF (after washout, t 330 s): 117.56 mmHg
- LVSP representative trace, OFF (after washout, t 340 s): 118.377 mmHg
- LVSP representative trace, OFF (after washout, t 350 s): 118.795 mmHg
- LVSP representative trace, OFF (after washout, t 360 s): 118.884 mmHg
- LVSP representative trace, OFF (after washout, t 370 s): 120.043 mmHg
- LVSP representative trace, OFF (after washout, t 380 s): 121.007 mmHg
- LVSP representative trace, OFF (after washout, t 390 s): 121.543 mmHg
- LVSP representative trace, OFF (after washout, t 400 s): 122.385 mmHg
- LVSP representative trace, ON (t 0 s): 185.674 mmHg
- LVSP representative trace, ON (t 10 s): 179.044 mmHg
- LVSP representative trace, ON (t 20 s): 172.645 mmHg
- LVSP representative trace, ON (t 30 s): 172.645 mmHg
- LVSP representative trace, ON (t 40 s): 172.645 mmHg
- LVSP representative trace, ON (t 50 s): 163.036 mmHg
- LVSP representative trace, ON (t 60 s): 160.436 mmHg
- LVSP representative trace, ON (t 70 s): 155.482 mmHg
- LVSP representative trace, ON (t 80 s): 149.519 mmHg
- LVSP representative trace, ON (t 90 s): 144.889 mmHg
- LVSP representative trace, ON (t 100 s): 139.74 mmHg
- LVSP representative trace, ON (t 110 s): 137.111 mmHg
- LVSP representative trace, ON (t 120 s): 131.856 mmHg
- LVSP representative trace, ON (t 130 s): 128.177 mmHg
- LVSP representative trace, ON (t 140 s): 123.963 mmHg
- LVSP representative trace, ON (t 150 s): 121.031 mmHg
- LVSP representative trace, ON (t 160 s): 117.5 mmHg
- LVSP representative trace, ON (t 170 s): 114.951 mmHg
- LVSP representative trace, ON (t 180 s): 110.93 mmHg
- LVSP representative trace, ON (t 190 s): 108.804 mmHg
- LVSP representative trace, ON (t 200 s): 106.216 mmHg
- LVSP representative trace, ON (t 210 s): 103.076 mmHg
- LVSP representative trace, ON (t 220 s): 101.63 mmHg
- LVSP representative trace, ON (t 230 s): 99.0368 mmHg
- LVSP representative trace, ON (t 240 s): 96.0294 mmHg
- LVSP representative trace, ON (t 250 s): 94.9632 mmHg
- LVSP representative trace, ON (t 260 s): 93.4811 mmHg
- LVSP representative trace, ON (t 270 s): 90.0331 mmHg
- LVSP representative trace, ON (t 280 s): 88.9689 mmHg
